Consider four compounds from paper PMC4313117, “Elabela-Apelin Receptor Signaling Pathway is Functional in Mammalian Systems” (Scientific Reports, 2015).

The test system of one assay is mouse aortic rings. The assay is described as follows: Vasorelaxation of U46619-contracted mouse aortic rings. Details: species or system mouse (C57BL/6). The source says:
Changes in tension were expressed as the percentage decrease in reference to precontraction tension. […] Values are means ± SEM. (n = 5–10). **p < 0.01, compared to aortas with endothelium at the same concentration points of the compound.
Aortas were isolated from 8–10 weeks male wild-type C57BL/6 mice, cut into 3-mm rings and mounted in organ chambers (PowerLab, AD Instruments, CO, USA) in Kreb's buffer as described previously. The contractile response was elicited by vasoconstrictor U46619 (30 nM) to produce contraction. […] In some preparations, the endothelium was mechanically removed from denuded arteries by gentle rubbing off the intimal surface with a wooden stick.

Assay [1] has as its system mouse heart failure model of coronary artery ligation. The following applies: cited from earlier work. An excerpt:
Apelin was considered the only endogenous ligand for APJ since isolation of the apelin peptide. Apelin is expressed in multiple tissues including adipose tissue, heart, vasculature, brain and kidney, whereas APJ is more broadly expressed in tissues such as heart, blood vessels and adipose tissue. […] At the receptor level, APJ is a GPCR coupled to Gi and/or Gq[15][16]. Activation of APJ results in biochemical responses i ... || Recently, the therapeutic potential of apelin as a reagent for heart failure has been increasingly recognized.

Assay [2] relates to vascular tone; blood pressure. The conditions noted are these: cited from earlier work. Here is the method:
The aortic rings were induced to contraction with vasoconstrictor U46619 (final concentration, 30 nM).

The subject of another assay is human saphenous vein. The following applies: cited from earlier work.
The test system of another assay is APJ. The following applies: zebrafish studies; cited from earlier work. An excerpt:
ELA deficiency leads to severe defects in heart development and lymphogenesis. ...

The test system of the next assay is HUVECs. The assay is described as follows: In vitro angiogenesis (tubular formation) assay in HUVECs. Format: cell-based, human. The following applies: for increase in number of branch points: HUVECs on Geltrex, counted after 10 hr; for increase in number of branch points / increase in tubular formation, APJ-overexpressing HUVECs: n = 5. The source says: ELA is a secreted hormone and expressed in adult kidney and prostate, and may, therefore, circulate in blood. Since ELA is required for normal development of cardiovascular system, blood vessel could be a target of ELA action. Vascular tube formation assay is a well-used in vitro study to assess angiogenic factors and conditions in which vascular cells, [e.g. human umbilical vascular endothelial cells (HUVECs)], can form tube-like structures under pro-angiogenic conditions in culture wells coated with Geltrex containing extra-cellular matrix. The number of branch points is used as an indicator for the strength of angiogenic stimuli.
Figure 4 Stimulation of tubule-like structure by ELA-APJ signaling. […] (B), Reverse transcription PCR of human APJ expression of HUVECs infected with APJ or APJ siRNA lentiviral constructs.
Tubular formation assay for angiogenesis was conducted in 96-well plates which were coated with 50 μl of Geltrex (Life Technologies, A14133-02) and left for polymerization by incubation for 1 hr at 37°C. […] Quantification of the tubular formation was performed after 10 hr of culture by calculating the number of branching point formed in each well under an inverted phase contrast photomicroscope (Olympus IX50), as described.

As for apelin-13, the “reduction of relaxing effect by removal of endothelium” value in the assay with mouse aortic rings (apelin-13, denuded vs intact vessels, n = 5–10) is listed as 48%. For the same compound, in the assay on mouse aortic rings (apelin-13, endothelium-denuded, U46619 30 nM precontraction, n = 5–10), the “relaxation, denuded vessels” value was determined as 31%. For the same compound, the “maximum relaxation, endothelium-intact vessels” value in the assay with mouse aortic rings (apelin-13 at 10^−6 M, U46619 30 nM precontraction, n = 5–10) is on record as 79%.
Turning to apelin, the “cardiac protection, contractility, infarction size, stem cell mobilization” value in assay [1] (mouse heart failure model of coronary artery ligation) is “have cardiac-protective effect and can increase heart contractility, reduce infarction size and promote cardiac stem cell mobilization to the infarct area”. Further, the cardioprotective effect entry in assay [1] (various animal models, infusion) is on record as “appears to have cardioprotective effect in various animal models”. In assay [2], the vascular tone entry is reported as “relax vascular tone” and the vasodilatory effect entry is reported as “a vasodilatory effect of apelin is reported”. Further, the blood pressure result in assay [2] (no ref number printed at this statement) is on record as “lower blood pressure”. Further, the “vasoconstriction in denuded vessels” value in assay [2] (vessels denuded of endothelium) is reported as “vasoconstriction is also noted”. Further, in the assay on human saphenous vein, the vasoconstriction result was “vasoconstriction is also noted in human saphenous vein”.
Turning to `CC(=O)OCC[N+](C)(C)C` [acetylcholine], the “relaxation by acetylcholine (control of endothelium removal and NOS inhibition)” value in the assay with mouse aortic rings (endothelium-denuded or L-NAME-treated arteries) is recorded as “inability of acetylcholine to relax the arteries”.
For the compound `CSCC[C@H](NC(=O)[C@@H](NC(=O)[C@H](CC(C)C)NC(=O)[C@H](CC(N)=O)NC(=O)[C@@H](NC(=O)[C@@H]1CCCN1C(=O)[C@H](CCCNC(=N)N)NC(=O)[C@@H](N)CCC(N)=O)C(C)C)[C@@H](C)O)C(=O)N[C@@H](CCCNC(=N)N)C(=O)N[C@@H](CCCNC(=N)N)C(=O)N[C@@H](CCCCN)C(=O)N[C@@H](CC(C)C)C(=O)N[C@@H](CCCNC(=N)N)C(=O)N[C@@H](CCCCN)C(=O)N[C@@H](Cc1c[nH]cn1)C(=O)N[C@@H](CC(N)=O)C(=O)N[C@H]1CSSC[C@@H](C(=O)N[C@@H](CCSC)C(=O)N2CCC[C@H]2C(=O)N[C@@H](CC(C)C)C(=O)N[C@@H](Cc2c[nH]cn2)C(=O)N[C@@H](CO)C(=O)N[C@@H](CCCNC(=N)N)C(=O)N[C@H](C(=O)N2CCC[C@H]2C(=O)N[C@@H](Cc2ccccc2)C(=O)N2CCC[C@H]2C(=O)O)C(C)C)NC(=O)[C@H](CCCNC(=N)N)NC(=O)[C@H](CCCNC(=N)N)NC(=O)[C@H](CCC(N)=O)NC(=O)[C@H](CC(C)C)NC1=O` [ELA], in the assay on mouse aortic rings (1 mM L-NAME for 30 min, then U46619, followed by ELA), the “relaxation with L-NAME pretreatment” value was “No significant difference was observed between the L-NAME-treated and non-treated vessels”. Also, the “maximum relaxation, endothelium-intact vessels” value in the assay on mouse aortic rings (U46619 30 nM precontraction, ELA 10^−9 to 10^−6 M cumulative, n = 5–10) amounted to 73.7%. Moreover, in the assay on mouse aortic rings (endothelium-denuded, ELA at corresponding concentrations, n = 5–10), the “decrease in relaxation in denuded vs intact vessels” value is recorded as ~ 20%. Further, the “binding and activation of APJ” value in the assay on APJ is “binds and activates APJ”. The “tubular formation, APJ-knock down HUVECs” value in the assay on HUVECs (ELA 0.1 μM, APJ siRNA) is “not effective in inducing the formation of tubular structures”. In addition, the “increase in number of branch points” value in the assay on HUVECs (ELA 0.1 μM) turned out to be 71.9%; with HUVECs (ELA 0.5 μM), 222.8%; in the assay on HUVECs (ELA 1 μM), 266.7%. Moreover, the “increase in tubular formation, APJ-overexpressing HUVECs” value turned out to be 63.3% in the assay with HUVECs (ELA 0.1 μM, compared to empty vector control cells with ELA) and 190.2% with HUVECs (ELA 0.1 μM, compared to empty vector control cells without ELA).
